Data: US7214673B2, “Piperazine substituted aryl benzodiazepines and their use as dopamine receptor antagonists for the treatment of psychotic disorders” (Eli Lilly and Company, priority 2002, dated 2007)
Where a name gives a salt, the structure may show the parent alone.

For `Cc1cc2c(s1)Nc1ccccc1N=C2N1CCN(C)[C@@H](CCc2ccoc2)C1.Cl.Cl`, the melting point was 198 °C (dec.). In the case of `Cc1cc2c(s1)Nc1ccccc1N=C2N1CCN(C)[C@@H](CCc2ccccc2)C1.Cl`, the melting point is reported as 225 °C. With `Cc1cc2c(s1)Nc1ccccc1N=C2N1CCN(C)[C@@H](CCc2ccc3ccccc3c2)C1` (as salt: hydrochloride) the melting point was 209 °C (dec.). Compound `CN1CCN(C2=Nc3ccccc3Nc3sc(C(C)(C)C)cc32)C[C@@H]1CCc1ccccc1` (as salt: hydrochloride) has a melting point of 230 °C. For `Cc1nc2c(s1)Nc1ccccc1N=C2N1CCN(C)[C@@H](Cc2ccccc2)C1` (as salt: hydrochloride), the melting point was 240 °C. `COc1ccccc1C[C@H]1CN(C2=Nc3ccccc3Nc3sc(C)nc32)CCN1C` (as salt: hydrochloride) showed a melting point of 185 °C. For `CC(C)c1nc2c(s1)Nc1ccccc1N=C2N1CCN(C)[C@@H](CCc2ccccc2)C1` (as salt: hydrochloride), the melting point was 210 °C. `COc1ccc(CC[C@H]2CN(C3=Nc4ccccc4Nc4sc(C(C)C)nc43)CCN2C)cc1` (as salt: hydrochloride) gave a melting point of 190 °C. Work on `Cc1nc2c(s1)Nc1ccccc1N=C2N1CCN(C)[C@@H](CCc2ccc(F)cc2)C1` (as salt: hydrochloride) yielded a melting point of 230 °C. Compound `CC(C)c1nc2c(s1)Nc1ccccc1N=C2N1CCN(C)[C@@H](CCc2cccc(F)c2)C1` (as salt: hydrochloride) has a melting point of 180 °C. With `CC(C)c1ccc2c(c1)C(N1CCN(C)[C@@H](CCc3cccc(F)c3)C1)=Nc1ccccc1N2` (as salt: hydrochloride) the melting point was 227 °C. In the case of `Cc1cc2c(s1)Nc1ccccc1N=C2N1CCN(C)[C@@H](CCc2ccncc2)C1` (as salt: hydrochloride) (hydrate or solvate), the melting point is reported as 214 to 217 °C (dec.). For `Cc1cc2c(s1)Nc1ccccc1N=C2N1CCN[C@@H](CCc2cccnc2)C1` (as salt: hydrochloride) (hydrate or solvate), the melting point was 226 to 229 °C (dec.). `Cc1nc2c(s1)Nc1ccccc1N=C2N1CCN[C@@H](CCc2ccccc2)C1` (as salt: hydrochloride) (hydrate or solvate) [Example 460, (S)-2-Methyl-10-(3-phenethyl-piperazin-1-yl)-4H-3-thia-1,4,9-triaza-benzo[f]azulene dihydrochloride hemihydrate] showed a melting point of 230 °C. `Cc1nc2c(s1)Nc1ccccc1N=C2N1CCN(C)[C@@H](CCc2ccccc2)C1` (as salt: hydrochloride) (hydrate or solvate) [Example 461, (S)-2-Methyl-10-(4-methyl-3-phenethyl-piperazin-1-yl)-4H-3-thia-1,4,9-triaza-benzo[f]azulene dihydrochloride hemihydrate] showed a melting point of 220 °C. Compound `CC(C)n1nc2c(n1)C(N1CCN[C@@H](CCc3ccccc3)C1)=Nc1ccccc1N2` (as salt: hydrochloride) (hydrate or solvate) [Example 594, (S)-2-Isopropyl-10-(3-phenethyl-piperazin-1-yl)-2,4-dihydro-1,2,3,4.9-pentaaza-benzo[f]azulene dihydrochloride hemihydrate] has a melting point of 210 °C. For `Cc1cc2c(s1)Nc1ccccc1N=C2N1CCN[C@@H](CCc2ccccn2)C1` (as salt: hydrochloride) [Example 132], the melting point was 220 to 224 °C (dec.). With `Cc1cc2c(s1)Nc1ccccc1N=C2N1CCN[C@@H](CCc2ccc(F)cc2)C1` (as salt: hydrochloride) [Example 176, 10-((S)-3-(2-(4-Fluorophenyl)-ethyl)-piperazin-1-yl)-2-methyl-4H-3-thia-4,9-diaza-benzo[f]azulene dihydrochloride] the melting point was 236 °C (dec.). With `Cc1cc2c(s1)Nc1ccccc1N=C2N1CCN[C@@H](CCc2cccc(F)c2)C1` (as salt: hydrochloride) [Example 177, 10-((S)-3-(2-(3-Fluoro-phenyl)-ethyl)-piperazin-1-yl))-2-methyl-4H-3-thia-4,9-diaza-benzo[f]azulene dihydrochloride] the melting point was 211 °C (dec.). With `Cc1cc2c(s1)Nc1ccccc1N=C2N1CCN[C@@H](CCc2ccccc2F)C1` (as salt: hydrochloride) [Example 178, 10-((S)-3-(2-(2-Fluoro-phenyl)-ethyl)-piperazin-1-yl)-2-methyl-4H-3-thia-4,9-diaza-benzo[f]azulene dihydrochloride] the melting point was 209 °C (dec.). With `COc1ccc(CC[C@H]2CN(C3=Nc4ccccc4Nc4sc(C)cc43)CCN2)cc1` (as salt: hydrochloride) [Example 179, 10-((S)-3-(2-(4-methoxy-phenyl)-ethyl)-piperazin-1-yl)-2-methyl-4H-3-thia-4,9-diaza-benzo[f]azulene dihydrochloride] the melting point was 213 °C (dec.). For `COc1cccc(CC[C@H]2CN(C3=Nc4ccccc4Nc4sc(C)cc43)CCN2)c1` (as salt: hydrochloride) [Example 180, 10-((S)-3-(2-(3-Methoxy-phenyl)-ethyl)-piperazin-1-yl)-2-methyl-4H-3-thia-4,9-diaza-benzo[f]azulene dihydrochloride], the melting point was 201 °C (dec.). With `COc1ccccc1CC[C@H]1CN(C2=Nc3ccccc3Nc3sc(C)cc32)CCN1` (as salt: hydrochloride) [Example 181, 10-((S)-3-(2-(2-Methoxy-phenyl)-ethyl)-piperazin-1-yl)-2-methyl-4H-3-thia-4,9-diaza-benzo[f]azulene dihydrochloride] the melting point was 202 °C (dec.). With `Cc1cc2c(s1)Nc1ccccc1N=C2N1CCN(C)[C@@H](CCc2ccc(F)cc2)C1` (as salt: hydrochloride) [Example 182, 10-((S)-3-(2-(4-Fluoro-phenyl)-ethyl]-4-methyl-piperazin-1-yl)-2-methyl-4H-3-thia-4,9-diaza-benzo[f]azulene dihydrochloride] the melting point was 253 °C (dec.). In the case of `Cc1cc2c(s1)Nc1ccccc1N=C2N1CCN(C)[C@@H](CCc2cccc(F)c2)C1` (as salt: hydrochloride) [Example 183, 10-((S)-3-(2-(3-Fluoro-phenyl)-ethyl)-4-methyl-piperazin-1-yl)-2-methyl-4H-3-thia-4,9-diaza-benzo[f]azulene dihydrochloride], the melting point is reported as 225 °C (dec.). With `Cc1cc2c(s1)Nc1ccccc1N=C2N1CCN(C)[C@@H](CCc2ccccc2F)C1` (as salt: hydrochloride) [Example 184, 10-((S)-3-(2-(2-Fluoro-phenyl)-ethyl)-4-methyl-piperazin-1-yl)-2-methyl-4H-3-thia-4,9-diaza-benzo[f]azulene dihydrochloride] the melting point was 203 °C (dec.). For `COc1ccc(CC[C@H]2CN(C3=Nc4ccccc4Nc4sc(C)cc43)CCN2C)cc1` (as salt: hydrochloride) [Example 185, 10-((S)-3-(2-(4-Methoxy-phenyl)-ethyl)-4-methyl-piperazin-1-yl)-2-methyl-4H-3-thia-4,9-diaza-benzo[f]azulene dihydrochloride], the melting point was 239 °C (dec.). In the case of `COc1cccc(CC[C@H]2CN(C3=Nc4ccccc4Nc4sc(C)cc43)CCN2C)c1` (as salt: hydrochloride) [Example 186, 10-((S)-3-(2-(3-Methoxy-phenyl)-ethyl)-4-methyl-piperazin-1-yl)-2-methyl-4H-3-thia-4.9-diaza-benzo[f]azulene dihydrochloride], the melting point is reported as 200 °C (dec.). In the case of `COc1ccccc1CC[C@H]1CN(C2=Nc3ccccc3Nc3sc(C)cc32)CCN1C` (as salt: hydrochloride) [Example 187, 10-((S)-3-(2-(2-Methoxy-phenyl)-ethyl)-4-methyl-piperazin-1-yl)-2-methyl-4H-3-thia-4,9-diaza-benzo[f]azulene dihydrochloride], the melting point is reported as 213 °C (dec.). `CC(C)c1nc2c(s1)Nc1ccccc1N=C2N1CCN(C)[C@@H](Cc2ccccc2)C1` (as salt: hydrochloride) [Example 477, (S)-10-(3-Benzyl-4-methyl-piperazin-1-yl)-2-isopropyl-4H-3-thia-1,4,9-triaza-benzo[f]azulene dihydrochloride] showed a melting point of 235 °C. `Cc1nc2c(s1)Nc1ccccc1N=C2N1CCN(C)[C@@H](CCc2cccc(F)c2)C1` (as salt: hydrochloride) [Example 479, (S)-10-{3-[2-(3-Fluoro-phenyl)-ethyl]-4-methyl-piperazin-1-yl}-2-methyl-4H-3-thia-1,4,9-triaza-benzo[f]azulene dihydrochloride] gave a melting point of 230 °C. `CC(C)c1nc2c(s1)Nc1ccccc1N=C2N1CCN(C)[C@@H](CCc2ccc(F)cc2)C1` (as salt: hydrochloride) [Example 481, (S)-10-{3-[2-(4-Fluoro-phenyl)-ethyl]-4-methyl-piperazin-1-yl}-2-isopropyl-4H-3-thia-1,4,9-triaza-benzo[f]azulene dihydrochloride] showed a melting point of 228 °C. Compound `COc1ccc(CC[C@H]2CN(C3=Nc4cc(F)ccc4Nc4sc(C)cc43)CCN2C)cc1.Cl` (stereo in doubt) has a melting point of 180 to 182 °C. With `Cc1cc2c(s1)Nc1ccccc1N=C2N1CCN[C@@H](CCc2cccc(Cl)c2)C1` [Example 387, 10-((S)-3-[2-(3-Chloro-phenyl)-ethyl]-piperazin-1-yl)-2-methyl-4H-3-thia-4,9-diaza-benzo[f]azulene] the melting point was 68 to 74 °C (dec.). For `Cc1cc2c(s1)Nc1ccccc1N=C2N1CCN[C@@H](CCc2ccc(Cl)cc2)C1` [Example 388, 10-((S)-3-[2-(4-Chloro-phenyl)-ethyl]-piperazin-1-yl)-2-methyl-4H-3-thia-4,9-diaza-benzo[f]azulene], the melting point was 91 °C (dec.). In the case of `Cc1cc2c(s1)Nc1ccccc1N=C2N1CCN[C@@H](CCc2ccccc2Cl)C1` [Example 389, 10-((S)-3-[2-(2-Chloro-phenyl)-ethyl]-piperazin-l-yl)-2-methyl-4H-3-thia-4,9-diaza-benzo[f]azulene], the melting point is reported as 72 °C (dec.). In the case of `Cc1cc2c(s1)Nc1ccccc1N=C2N1CCN(C)[C@@H](CCc2ccc(Cl)cc2)C1` [Example 390, 10-((S)-3-[2-(4-Chloro-phenyl)-ethyl]-4-methyl-piperazin-1-yl)-2-methyl-4H-3-thia-4,9-diaza-benzo[f]azulene], the melting point is reported as 79 °C (dec.).
